Assay results from US20060240474A1, “Peptides able to switch between two structural states and their use” (UNIVERSITY OF SUSSEX, priority 2002, published 2006).
Each block holds one molecule with its values, some of them ahead of it. Where a SMILES comes first, the peptide text is derived from it. Bridges are numbered along the chain shown (N, C = ends). Where no end group is shown, it is not given here. The star is where a group is joined. Cam = NC(=O)C*

Experiments:
[1] = Conformational switching of oxidised CSP-3 to the reduced form, CD time scan at 222 nm; assay type: physicochemical; conditions: 20-fold excess (2 mM)
Experimental: The molar ellipticity at 222 nm was recorded. To induce the switch of the peptide from its oxidised to its reduced form a reducing agent for the disulphide bond was added. Two reducing agents were used for comparison, DTE and β-mercaptoethanol, in 20-fold excess (2 mM). […] The time taken to initiate the scan after addition of reducing agent was noted. […] A wavelength scan (190-260 nm) was run for each sample once the switch experiment was complete to record the spectrum of the reduced peptide. The data obtained from the time course reaction was analysed using the data analysis program Origin (v. 11) (see FIG. 5) A single exponential curve for a first order reaction has been fitted to the data from a switch experiment, using the data analysis program Origin. The equation for the curve is: y=Ae^−kt+B where A=amplitude of signal • B=[…] • k=rate constant • t=time […]

[2] = Circular dichroism spectroscopy (helicity); assay type: physicochemical; conditions: pH 7; comparator named in the value
Experimental: (§1) Circular dichroism spectroscopy. CD measurements were made using a JASCO J-715 spectropolarimeter fitted with a Peltier temperature controller. Peptide solutions were prepared in 25 mM potassium phosphate buffer at pH 7 and were examined in 1 mm or 1 cm quartz cuvettes (with stirring). Spectra were recorded at 5° C. using 1 nm intervals, a 1 nm bandwidth and 4 sec response time. Thermal unfolding curves were recorded through 1° C. min^−1 ramps using a 2 nm bandwidth, averaging the signal for 16 s every 1° C. intervals. After baseline correction, ellipticities in mdeg were converted to molar ellipticities (deg cm^2 dmol-res-^−1) by normalising for the concentration of peptide bonds.

[3] = Thermal unfolding followed by CD spectroscopy; assay type: physicochemical; conditions: comparator named in the value
Experimental: as §1

[4] = Sedimentation equilibrium analytical ultracentrifugation (monomer-dimer equilibrium); assay type: physicochemical; conditions: monomer-dimer fit, 5° C., pH 7; read-out: KD (95% confidence limits)
Experimental: Sedimentation equilibrium experiments were conducted at 5° C. in a Beckman-Optima XL-I analytical ultracentrifuge fitted with an An-60 Ti rotor. A […] peptide solution at […] in 25 mM K phosphate buffer pH 7 containing 0.1 M KCl was equilibrated for 48 h at speeds of 40 000, 47 500/50 000 and 55 000/60 000 rpm. […] The molecular weights (Table 2) and partial specific volumes (range 0.7417 to 0.7461) of the peptides were calculated from their amino-acid sequences, and the viscosity of the buffer at 5° C. was taken to be […].

[5] = molecular target: the molecule itself; assay: sedimentation equilibrium AUC, poor monomer-dimer fit, 5 C (homodimerisation)
Experimental: (§2) Sedimentation equilibrium experiments were conducted at 5° C. in a Beckman-Optima XL-I analytical ultracentrifuge fitted with an An-60 Ti rotor. A […] peptide solution at […] in 25 mM K phosphate buffer pH 7 containing 0.1 M KCl was equilibrated for 48 h at speeds of 40 000, 47 500/50 000 and 55 000/60 000 rpm. Data were fitted simultaneously assuming either a single ideal species or a monomer-dimer equilibrium and fixed monomer molecular weight, using routines in the Beckman-Optima XL-A/XLI-I data analysis software (v4.0). The molecular weights (Table 2) and partial specific volumes (range 0.7417 to 0.7461) of the peptides were calculated from their amino-acid sequences, and the viscosity of the buffer at 5° C. was taken to be […].
However, the reduced form of the peptide, CSP-2r, was only partially folded as judged from CD spectra (consistent with only ˜20% helix) (see FIG. 3A). […] (see FIG. 3B). […] The data fitted best assuming a single ideal species, and returned a molecular weight close to that expected for monomer (see Table 2). Fits to monomer-dimer were poor and gave weak dissociation constants in the 10-100 mM range.

[6] = molecular target: the molecule itself; assay: sedimentation equilibrium (AUC), self-association
Experimental: as §2

Molecule: CC[C@H](C)[C@@H]1NC(=O)[C@H](CCCCN)NC(=O)[C@H](CCC(N)=O)NC(=O)[C@H](CCC(=O)O)NC(=O)[C@H](CC(C)C)NC(=O)[C@H](C)NC(=O)[C@H](CCCNC(=N)N)NC(=O)[C@H]([C@@H](C)CC)NC(=O)[C@H](CCCCN)NC(=O)[C@H](C)NC(=O)[C@H](CCC(N)=O)NC(=O)[C@H](CCCCN)NC(=O)[C@H](C)NC(=O)[C@H](CCC(N)=O)NC(=O)[C@H](CCCCN)NC(=O)[C@H](CC(C)C)NC(=O)[C@H](CCCNC(=N)N)NC(=O)[C@H](C)NC(=O)[C@H]([C@@H](C)CC)NC(=O)[C@H](CCC(=O)O)NC(=O)[C@H](Cc2ccc(O)cc2)NC(=O)[C@H](CCCCN)NC(=O)[C@H](CC(C)C)NC(=O)[C@H](C)NC(=O)[C@H](CCCNC(=N)N)NC(=O)[C@H]([C@@H](C)CC)NC(=O)[C@H](CCC(=O)O)NC(=O)CNC(=O)CNC(=O)[C@@H](N)CSSC[C@@H](C(=O)O)NC(=O)CNC(=O)CNC(=O)[C@H](CCC(=O)O)NC(=O)[C@H](CC(C)C)NC(=O)[C@H](C)NC(=O)[C@H](C)NC1=O [CSP-3o] (H-CGGEIRALKYEIARLKQAKQAKIRALEQKIAALEGGC-OH; disulfide 1-37; N-terminus and C-terminus assumed)
- time taken for reduction to complete ([1]; with DTE): 75 min
- time taken for reduction to complete ([1]; with βME): 180 min
- helicity compared with other designs (CD signal at 222 nm) [2]: marginally improved helicity and thermal stability over CSP-2o
- thermal stability in words [3]: marginally improved helicity and thermal stability over CSP-2o

- Kd [4]: 33 µM
Molecule: CGGEIRALKYEIARLKQ----KKRALEQKIAALEGGC [CSP-1r]

B1: CSP-2r (reduced and alkylated) (peptide)
peptide: C(Cam)GGEIRALKYEIARLKQGGGGKKRALEQKIAALEGGC(Cam)
notes: CSP-1 with a tetraglycine insert; also called design iteration 2, reduced & alkylated; CSP-4a (Maya's nomenclature)
- Kd [5]: 10 to 100 mM

B2: CSP-2o (intra-molecularly oxidised) (peptide)
peptide: CGGEIRALKYEIARLKQGGGGKKRALEQKIAALEGGC
modifications: disulfide 1-37
notes: also called design iteration 2, oxidised; CSP-4o (Maya's nomenclature)
- binding result [6]: no binding
